Reference: patent US9198890B2, “Compositions and methods for treating and preventing coronary heart disease” (priority 2011, dated 2015)
Values joined by “and” are separate entries in the source; they are usually repeats but may differ in a detail not shown here. Identical values can stand only once.

Legend:
[1] = 16 healthy volunteers, multiple-dose; cited from earlier work
[2] = system: elderly individuals at risk of vascular disease; assay: PROSPER study: incidence of CHD death or nonfatal MI on trial; format: in vivo, human; settings: for Pravastatin HR, hazards ratio (95% confidence intervals), CHD death or nonfatal MI: Pravastatin group
Procedure: Statistical analysis: Observed genotype frequencies were compared with those expected under Hardy-Weinberg equilibrium using a χ2 test. For data analysis, multivariable analysis of covariance (ANCOVA) was performed to detect associations between the lipoprotein levels at baseline as well as changes in response to the treatment with Pravastatin at 6 months and with SLCO1B1 genotypes adjusted for gender, body mass index, age, alcohol, smoking, diabetes, apoE phenotype, and country of origin, since subjects participating in PROSPER were either from Scotland, Ireland, or the Netherlands. Prevalence at baseline of myocardial infarction (MI) and all types of vascular disease (history of angina, claudication, MI, stroke, transient ischemic attack, peripheral arterial disease surgery, or amputation for vascular disease more than 6 months before study entry) at baseline, as well as incidence of primary endpoints (CHD death or nonfatal MI or fatal non-fatal stroke), and all cardiovascular events (primary endpoints and coronary artery bypass grafting, coronary angioplasty, and peripheral artery surgery or angioplasty), were compared between carriers of different SLCO1B1 SNP genotypes using multivariable logistic regression analysis in all subjects and stratified by gender and treatment. All analyses were fully adjusted for age, gender, country, history of vascular disease, body mass index, history of diabetes, as well as history of hypertension, alcohol use, current smoking, and apoE phenotype. To evaluate the modifying effects of genotypes and gender on the response to treatment, gene-treatment and gene-gender interaction terms were added to the regression models. Lewontin's D value was calculated to assess the linkage disequilibrium (LD) between the two SNPs of interest (Lewontin R C. The interaction of selection and linkage. II. Optimum models. Genetics 1964; 50:757-82). There was no interaction between these SNPs and also no interaction between these SNPs and apoE genotype. All analyses were performed using SAS/STAT and SAS/Genetics [including proc haplotype procedure] (SAS Version 9.1, SAS Institute Inc., Cary, N.C.). A two-sided p<0.05 was considered statistically significant.

[3] = system: LDL-C; assay: PROSPER study: lipid (LDL-C, HDL-C, triglyceride) response to Pravastatin 40 mg/day, overall and by SLCO1B1/LXRA genotype; format: in vivo, human; settings: mean ± S.D.
[4] = system: elderly individuals at risk of vascular disease; assay: PROSPER study: adverse events (myalgia, rhabdomyolysis, creatine kinase)
Description: In this randomized study with 5,804 subjects, 2,913 subjects received placebo and 2,891 received Pravastatin (three of whom refused medication). […] This adverse event rate was very similar to the placebo group where 116 subjects discontinued medication because of non-fatal adverse events. […] At the 3 month visit there no subjects that had creatine kinase levels >10 the upper limits of normal.
Study Subjects: The results and the methodology used in the PROspective Study of Pravastatin in the Elderly at Risk (PROSPER) study have been previously described (see e.g., Shepherd J et al. PROspective Study of Pravastatin in the Elderly at Risk. Pravastatin in elderly individuals at risk of vascular disease (PROSPER): a randomized controlled trial. Lancet (2002) 360:1623-30 and Shepherd J et al. The design of a prospective study of Pravastatin in the Elderly at Risk (PROSPER). PROSPER Study Group. PROspective Study of Pravastatin in the Elderly at Risk. Am J Cardiol (1999) 84:1192-97).
In the present study 2,804 men and 3,000 women between the ages of 70 and 82 with pre-existing vascular disease (n=2,404) or at least one of three major vascular risk factors (diabetes n=575, smoking n=1,433, or hypertension n=3,360) were randomized to Pravastatin 40 mg/day (n=2,891) or placebo (n=2,913) and followed up on for 3.2 years, on average. […] This effect translates into an estimated 30% risk reduction in CHD events over 5 years, which is consistent with other statin trials. […] For subjects that were judged to have good compliance (i.e. taking medication more than 75% of the time), these alterations on the lipid levels were even greater: −34% […], +5% (increased HDL-C), and −13% (decreased triglycerides), respectively. […] Lipid levels were similar at onset of the study in subjects randomized to Pravastatin or placebo.

[5] = single oral dose of 40 mg, 32 subjects; cited from earlier work
[6] = system: LDL-C; assay: PROSPER study: lipid (LDL-C, HDL-C, triglyceride) response to Pravastatin 40 mg/day, overall and by SLCO1B1/LXRA genotype; format: in vivo, human; settings: for Adjusted mean percent LDL-cholesterol reduction: mean ± S.D.
Procedure: The effect of SNPs at nucleotide positions 388 (e.g. A>G) and 625 (e.g. T>C) of the SLCO1B1 gene and also at nucleotide position −115 (e.g. G>A) of the LXRA gene on responsiveness to Pravastatin in subjects of various genotypes was assessed by analyzing the correlation of different SNP genotypes with the 6 month and 12 month changes in TC and LDL-C levels in treated subjects, as shown below in Table 5. Neither the presence of the LXRA SNP at nucleotide position −115 nor the SLCO1B1 SNP at nucleotide position 388 were associated with lipid lowering. […] The percentage reductions in LDL-C given are for the 6 month time point (Table 5).
Biochemical and DNA analysis: Total cholesterol (TC), HDL-C, and triglycerides were assessed in subjects after an overnight fast at 6 months, and at 12 months, and LDL-C was calculated by the Friedewald formula, as previously described (Shepherd J et al. (2002) Lancet 360:1623-30). Apolipoprotein B (apoB) was measured only at baseline as described. DNA was isolated from cells from this cohort, and DNA from 5,783 subjects participating in this study was also available. ApoE phenotype was determined on plasma samples by Western blotting, using the method of Havekes et al. in the central laboratory of the Royal Infirmary in Glasgow, Scotland (Havekes L M et al. A rapid micro method for apolipoprotein E phenotyping directly in serum. J Lipid Res (1987) 28:455-63). Subjects were classified according to the presence of apoE2, apoE3, or apoE4 bands on gel blotting (Havekes L M et al. (1987) J Lipid Res 28:455-63).
DNA analysis was conducted by genotyping two single nucleotide polymorphisms (SNPs) of the SLCO1B1 gene—388A>G (rs2306283) and 511T>C (rs4149056)—using standard methods (e.g. Taq Man® SNPs genotyping assays by Applied Biosystems, Foster City, Calif.). The custom assay identification numbers for these analyses were C—1901697—20 and C—30633906—10, respectively. Additionally, DNA analysis was also conducted by genotyping one SNP of the LXRA gene, rs12221497, and the custom assay identification number for this analysis was C—30887860—10. The end points were ascertained after PCR amplification was performed using standard methods (e.g. an Applied Biosystems 7900 HT Sequence Detection System). Genotypes with quality scores below the 95% threshold were repeated and 5% blinded replicates for genotype determinations were performed. In addition, a total of 119 subjects (˜2.2% of the sample size) who had the apoE4/2 phenotype were excluded from these analyses, as well as 246 subjects who had missing apoE phenotype. These subjects were excluded because apoE phenotype or genotype can affect statin-induced LDL-C lowering response, as well as CHD risk, in an allele dependent manner. For example, subjects carrying the apoE4 allele having the greatest response in terms of LDL-C lowering and the highest CHD risk, however, apoE2 and apoE4 phenotype have opposite effects in this regard.
Statistical analysis: Observed genotype frequencies were compared with those expected under Hardy-Weinberg equilibrium using a χ2 test. For data analysis, multivariable analysis of covariance (ANCOVA) was performed to detect associations between the lipoprotein levels at baseline as well as changes in response to the treatment with Pravastatin at 6 months and with SLCO1B1 genotypes adjusted for gender, body mass index, age, alcohol, smoking, diabetes, apoE phenotype, and country of origin, since subjects participating in PROSPER were either from Scotland, Ireland, or the Netherlands. […]

[7] = subjects with good compliance (medication more than 75% of the time)

CC[C@H](C)C(=O)O[C@H]1C[C@H](O)C=C2C=C[C@H](C)[C@H](CC[C@@H](O)C[C@@H](O)CC(=O)O)[C@H]21 [Pravastatin, pravastatin]
plasma pravastatin levels with SLCO1B1 haplotype as compared to other haplotypes [1]: doubling
Pravastatin HR, hazards ratio (95% confidence intervals), CHD death or nonfatal MI ([2]; 388 A > G genotype AA (reference genotype)): 1
Pravastatin HR, hazards ratio (95% confidence intervals), CHD death or nonfatal MI ([2]; 388 A > G genotype AG versus AA): 1.13
Pravastatin HR, hazards ratio (95% confidence intervals), CHD death or nonfatal MI ([2]; 388 A > G genotype GG versus AA): 1.12
Pravastatin HR, hazards ratio (95% confidence intervals), CHD death or nonfatal MI ([2]; 625 T > C genotype CC versus TT): 0.64
Pravastatin HR, hazards ratio (95% confidence intervals), CHD death or nonfatal MI ([2]; 625 T > C genotype TC versus TT): 0.99
Pravastatin HR, hazards ratio (95% confidence intervals), CHD death or nonfatal MI ([2]; 625 T > C genotype TT (reference genotype)): 1
estimated risk reduction in CHD events ([2]; over 5 years, translated from the 3.2 year effect): 30%
Adjusted mean percent LDL-cholesterol reduction ([3]; 6 months, SLCO1B1 625 T > C genotype CC, Pravastatin 40 mg/day): −31.8% and −31.8 ± 12.8%
Adjusted mean percent LDL-cholesterol reduction ([3]; 6 months, SLCO1B1 625 T > C genotype TC, Pravastatin 40 mg/day): −36.0% and −36.0 ± 10.4%
Adjusted mean percent LDL-cholesterol reduction ([3]; 6 months, SLCO1B1 625 T > C genotype TT, Pravastatin 40 mg/day): −37.0% and −37.0 ± 10.8%
Adjusted mean percent LDL-cholesterol reduction ([3]; 12 months, SLCO1B1 625 T > C genotype TT): −35.9 ± 11.8%
reported cases of myalgia ([4]; both, human, in vivo, 3.2 years): 36 cases
association of the SLCO1B1 rs4149056 SNP with myalgia ([4]; in vivo): no association
reported cases of rhabdomyolysis ([4]; in vivo): no reported cases
subjects who discontinued medication because of non-fatal adverse events ([4]; of 2,888 subjects started on Pravastatin, 116 in placebo group): 107 subjects
areas under the curve of pravastatin blood levels, CC versus wildtype TT SLCO1B1 genotype [5]: significantly greater
Adjusted mean percent LDL-cholesterol reduction ([6]; 6 months, LXRA 115 G > A genotype AA): −37.4 ± 10.9%
Adjusted mean percent LDL-cholesterol reduction ([6]; 6 months, LXRA 115 G > A genotype GA): −36.4 ± 10.7%
Adjusted mean percent LDL-cholesterol reduction ([6]; 6 months, LXRA 115 G > A genotype GG): −36.6 ± 10.7%
Adjusted mean percent LDL-cholesterol reduction ([6]; 6 months, SLCO1B1 388 A > G genotype AA): −36.7 ± 10.5%
Adjusted mean percent LDL-cholesterol reduction ([6]; 6 months, SLCO1B1 388 A > G genotype AG): −36.6 ± 10.7%
Adjusted mean percent LDL-cholesterol reduction ([6]; 6 months, SLCO1B1 388 A > G genotype GG): −36.2 ± 11.6%
Adjusted mean percent LDL-cholesterol reduction ([6]; 12 months, LXRA 115 G > A genotype AA): −35.3 ± 11.2%
Adjusted mean percent LDL-cholesterol reduction ([6]; 12 months, LXRA 115 G > A genotype GA): −35.1 ± 11.6%
Adjusted mean percent LDL-cholesterol reduction ([6]; 12 months, LXRA 115 G > A genotype GG): −35.5 ± 12.1%
Adjusted mean percent LDL-cholesterol reduction ([6]; 12 months, SLCO1B1 388 A > G genotype AA): −35.9 ± 11.2%
Adjusted mean percent LDL-cholesterol reduction ([6]; 12 months, SLCO1B1 388 A > G genotype AG): −35.3 ± 12.3%
Adjusted mean percent LDL-cholesterol reduction ([6]; 12 months, SLCO1B1 388 A > G genotype GG): −34.3 ± 12.8%
Adjusted mean percent LDL-cholesterol reduction ([6]; 12 months, SLCO1B1 625 T > C genotype CC): −31.8 ± 11.7%
Adjusted mean percent LDL-cholesterol reduction ([6]; 12 months, SLCO1B1 625 T > C genotype TC): −34.6 ± 12.5%
HDL-C increase versus baseline ([6]; subjects placed on Pravastatin): 5%
triglycerides decrease versus baseline ([6]; subjects placed on Pravastatin): 12%
alteration printed as risk reduction for CHD [6, 7]: −34%
decreased triglycerides [6, 7]: −13%
increased HDL-C [6, 7]: +5%
